These are literature values, as cited in PMC8845813 (Angewandte Chemie (International ed. in English), 2021).

The test system of this series is LC3A and LC3B LIR-interaction interface.

As to `CO[C@@H]1[C@@H](OC(N)=O)[C@@H](O)[C@H](Oc2ccc3c(O)c(NC(=O)c4ccc(O)c(CC=C(C)C)c4)c(=O)oc3c2C)OC1(C)C` [novobiocin], the “potency at LC3A and LC3B LIR-interaction interface” value is reported as “weak potency”.
